# Data as given in patent US8017350B2, “Glimepiride- and insulin-induced glycosylphosphatidylinositol-specific phospholipase C regulation” (Sanofi-Aventis Deutschland GmbH, priority 2004, dated 2011).
# Legend:
# [1] = biological target: T1, porcine pancreatic lipase (PL) (Sus scrofa, UniProt P00591); assay: pancreatic lipase assay (tributyrin, pH stat); format: biochemical; settings: 50 μM
# T1 construct: crude porcine pancreatic lipase (PL); purchased SigmalAldrich (Deisenhofen, Germany); host or cells: porcine pancreas (crude preparation)
# Description: Hormone-sensitive lipase (HSL) and lipoprotein lipase (LPL) were measured using a radiolabeled triolein droplet emulsion as described in “Vertesy et al., (2002) Journal Antibiotics 55:480-494”. Pancreatic lipase (PL) was determined by incubation of 0.25 mmol tributyrin in 2 ml of 5 mM Tris/HCl (pH 6.5), 6 mM sodium taurodeoxycholate, 150 mM NaCl, 1 mM CaCl2 with porcine PL and colipase in the same buffer using a recording pH stat (stirring at 1000 rpm at 25° C.) with the pH adjusted to 6.5. PC-PLC was assayed by incubation of 0.2 ml of 10 mM dipalmitoyllecithin, 0.1 ml of 10 mM SDC and 0.1 ml of 0.03 M CaCl2 with bacterial PC-PLC (in 50 mM Tris/HCl, pH 7.5, 0.1% BSA) for 10 min at 37° C. The reaction was terminated by addition of 0.1 ml of 50% TCA and subsequently of 2.5 ml of […]. After centrifugation (1500×g, 15 min), 0.2-ml portions of the upper methanol/water phase (˜1.33 ml) were removed, supplemented with 0.5 ml of 60% HClO4, then heated at 170° C. for 1 h and finally analyzed for inorganic phosphate. Mammalian PI-PLC was measured by incubation of 0.1 ml of 10 mM PI, 0.1 ml of 0.8% sodium deoxycholate, 0.1% BSA, 0.2 ml of 100 mM sodium borate (pH 7.5) and rat liver PI-PLC for 20 min at 37° C. The reaction was terminated and further processed as described for the PC-PLC. […] Radioactive phosphatidic acid was detected by phosphorimaging. […]
# isolated rat adipocytes = assay: isoproterenol-induced lipolysis (glycerol release); format: cell-based
# Description: Electroporation was performed as described in “Müller, G. et al., (2000) Mol. Cell. Biol. 20: 4708-4723”. Lipolysis was determined as release of glycerol or fluorescent NBD-FA from prelabeled and isoproterenol-stimulated adipocytes as described in “Müller, G. et al., (2003) Biochimie 85: 1245-1256”. Gce1 was detected by photolabeling of solubilized plasma membranes or hc/lcDIGs (10-50 μg protein) with 8-N3—[^32P]cAMP and subsequent phosphorimaging as described in “Müller, G. et al., (1994) Biochemistry 33: 12149-12159”. 5′-Nuc, aP and AChE activities were measured according to “Eliakim, R. et al., (1990) Biochim. Biophys. Acta 1355: 293-302”. Protein was determined using the BCA protein determination kit from Pierce (Rockford, Ill.) and BSA as calibration standard. SDS-PAGE was performed using precast gels (Novex, San Diego, Calif.; 10% Bis-Tris resolving gel, morpholinopropanesulfonic acid-SDS running buffer). Lumiimages were evaluated on a LumiImager using LumiImager software (Roche Diagnostics). Phosphor- and fluorescence images were processed and quantified using the Storm 860 PhosphorImager system (Molecular Dynamics, Gelsenkirchen, Germany). Figures were constructed using the ADOBE PHOTOSHOP software (Adobe Systems, Mountain View, Calif.).
# FIG. 8: Effect of GPI-2350 on the glimepiride/insulin-induced metabolic activity. […]
# T1 sequence (P00591 whole entry): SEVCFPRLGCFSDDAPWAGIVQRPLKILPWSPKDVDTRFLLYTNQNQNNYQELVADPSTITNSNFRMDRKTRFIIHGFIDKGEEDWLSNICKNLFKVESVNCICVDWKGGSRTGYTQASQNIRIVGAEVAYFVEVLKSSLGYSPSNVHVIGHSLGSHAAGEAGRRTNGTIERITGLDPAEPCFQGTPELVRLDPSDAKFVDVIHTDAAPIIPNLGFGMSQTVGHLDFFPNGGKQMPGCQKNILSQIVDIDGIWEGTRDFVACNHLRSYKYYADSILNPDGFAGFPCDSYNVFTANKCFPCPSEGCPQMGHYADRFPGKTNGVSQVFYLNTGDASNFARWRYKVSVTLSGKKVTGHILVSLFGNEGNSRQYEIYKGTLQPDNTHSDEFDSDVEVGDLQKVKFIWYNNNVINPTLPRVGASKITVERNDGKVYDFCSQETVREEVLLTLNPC
# T1 sequence (P02703 23-112 partner): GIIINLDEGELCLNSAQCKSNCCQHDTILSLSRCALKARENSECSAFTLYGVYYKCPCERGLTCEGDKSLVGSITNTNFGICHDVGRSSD
structure (smiles),measurement,setting,value
"CCCCCCCCCCCCP1(=O)O[C@@H]2[C@H](O)[C@@H](O)[C@H](O)[C@@H](O)[C@@H]2O1 (stereo partly drawn) [GPI-2350, myo-inositol-1,2-cyclo-dodecylphosphonic acid]",effect on PL,[1],not significantly affected
same,effect on insulin inhibition of lipolysis,isolated rat adipocytes,only marginally reduced
same,effect on inhibition of lipolysis in response to glimepiride,isolated rat adipocytes; 50 μM,almost complete blockade
